One assay has as its target Mouse NKA α3β1 (Mus musculus, UniProt Q6PIC6). The assay can be described thus: NKA ATPase activity inhibition, dose response. It is filed as biochemical.
For assay [1], the target named is NKA α1 purified from pig kidney (outer medulla) (Sus scrofa, UniProt P05024). The assay can be described thus: SPR. It is filed as binding.

With `C=Cc1cccc2c1N(C)Cc1cc3c(cc1-2)OCO3` [HLY72], the concentration for half-maximal inhibition (IC50) at Mouse NKA α3β1 came out at 18.6 µM. In assay [1], this compound had a Kd of 4.2 µM.
